# Source: patent publication US5955421A, “Peptides containing D-2-alkyl-Tryptophan” (priority 1990, dated 1999)
# Square brackets hold non-standard residues; d marks the D form. Peptide text beside a SMILES is read from it.
# Assays:
# [1] = test system: GH release; assay: Released GH in ten day-rats, s.c. (Table 9); format: in vivo; conditions: 15 minutes
# Protocol: In vivo activity of these compounds was determined in ten day-rats, which were subcutaneously injected (s.c.) with a dose of 300 μg/kg or with different doses in dose-response studies, according to the procedure as described in Deghenghi et. al, Life Sciences 54, 1321 (1994). The released GH was measured 15 minutes following compound administration.
# [2] = test system: pituitary cell monolayers; assay: GH secretion of pituitary cell monolayers incubated with peptides; format: cell-based, rats; conditions: 2 hours incubation
# Protocol: (§1) Male Sprague Dawley rats (Charles River, Calco, Italy) of 2-3 months of age were used. Rats were housed at 22 +2° C., with lighting cycle of 14 h light: 10 h dark (lights on from 06.00 to 20.00 h), at least 10 days before starting the experiments. A standard dry diet and water were available ad libitum.
# Pituitary tissue used for cell dissociation included only the anterior lobe. Briefly, pituitary glands were collected in sterile F-10 medium and after cutting into small fragments incubated twice (30 minutes each) at 37° C. in F-10 medium containing 6% fetal calf serum and collagenase (2.5 mg/ml) (Boehringer, Mannheim GmbH, Germany). Fragments were then washed in Dulbecco's PBS, Ca^2 + and Mg^2 + free medium and mechanically dissociated. Single cell suspension was planted onto 24-well (2×10^5 cells/well) culture plates. The cells were incubated in F-10 medium supplemented with 10% horse serum, 4% fetal calf serum and gentamycin (25 μg/ml), in a humidified atmosphere of 5% CO2 and 95% air at 37° C.
# After 3 days, the medium was removed and the cells washed twice with serum free F-10, then incubated with 1 ml of F-10 containing 0.1% BSA only, or with added various concentrations of synthetic peptides.
# After incubation for 2 h at 37° C., media were collected and stored frozen at -20° C. until assayed for measurement of GH content.
# (§2) Medium and plasma GH was measured by radioimmunoassay using materials supplied by the NIADDK Bethesda, Md. Values were expressed in term of NIASSK-rat-GH-RP-2 standard (potency 2 IU/ml), as ng/ml of medium or plasma.
# (§3) The minimum detectable value of rat was 1.0 ng/ml; intra-assay variability was 6%. To avoid inter-assay variation, samples from each experiment were assayed simultaneously.
# [3] = test system: GH release; assay: Plasma GH after i.v. administration in male rats anesthetized with ketamine and xilazine; format: in vivo; conditions: 0 min (before injection)
# Protocol: as §1
# (§4) Between 09.00-10.00 h rats were anesthetized with ketamine (58 mg/kg, Inoketam, VIRBAC, Milano) and xilazine (12 mg/kg, Rompun, Bayer, Milano). Thirty minutes later, a blood sample ([…]) was withdrawn from the exposed jugular vein, peptides were injected intravenously or subcutaneously, and further blood samples were collected 10, 20 and 30 minutes later.
# as §2, §3
# [4] = test system: GH release; assay: Plasma GH after s.c. administration in male rats anesthetized with ketamine and xilazine; format: in vivo; conditions: 0 min (before injection)
# Protocol: as §1, §4, §2, §3
# [5] = test system: rat; assay: Acute cardiovascular toxicity in the rat, single i.v. dose, mortality; format: in vivo; conditions: observed up to 4 hours
# Protocol: These two peptides were also tested for acute cardiovascular toxicity in the rat.
# Dosages were calculated on the basis of the declared peptide content in each product, as specified below:
# A single dose of HEXARELIN or GHRP-6 was administered to rats in different calendar dates in such a way that each group/dose should be treated in two subsequent days.
# For each compound, appropriate amounts of solutions in 0.9% NaCl for injection were prepared just before treatment at the suitable concentrations. The solutions were sterilized by filtration (Millipore filter, pore size 0.22 μm). Owing to the type of the study (acute study) in which formulates were administered just after preparation, stability checks were not performed. Concentration checks were also not performed. The volume of solution injected was maintained constant at 1 ml/Kg.
# The intravenous injections were done as a single dose in one vein of the tail with an appropriately gauged sterile, disposable, plastic syringe. The injection rate was about 0.1 ml/sec.
# Periodical observations were made up to 4 hours after treatment. Abnormality and mortality were recorded. Body weight was recorded once during pre-trial and on the administration day to calculate the volumes to be injected.
# [6] = test system: GH release; assay: GH response in conscious, freely-moving rats after antiserum pretreatment, i.v. 25 μg/kg; format: in vivo; conditions: 25 μg/kg i.v.
# Protocol: Sixty male rats were prepared with indwelling venous catheters under ether anesthesia three days before experimentation. On the day of experimentation, all animals were given an iv heparin injection (100 IU; 0630 h). At 0700 h, animals were treated with 0.5 ml of either normal serum (control-as), somatostatin antiserum (somatostatin-as; 0.25 ml+0.25 ml saline), growth hormone-releasing hormone antiserum (GHRH-as; 0.25 ml+0.25 ml saline), or both somatostatin antiserum and growth hormone-releasing hormone antiserum (0.25 ml somatostatin-as+0.25 ml GHRH-as). Blood sampling began 60 minutes after antiserum pretreatment, with blood samples collected every 20 minutes for three hours. After the 180 minute sample (1100 h), animals were treated iv with 25 μg/kg of either Hexarelin or GHRP-6. Blood samples were then collected at 5, 10, 15, 20, 30, 40, and 60 minutes after peptide treatment. All samples were centrifuged immediately and the plasma frozen until assayed. The peak GH response to Hexarelin and GHRP-6 as well as the area under the response curves (AUCs) for the thirty minutes following peptide injection were calculated. Data were subjected to repeated measures analysis of variance and are expressed as mean±SEM.
# [7] = test system: adenylcyclase; assay: Adenylcyclase activity in anterior pituitary gland cells; format: cell-based; conditions: anterior pituitary gland cells from rats weighing 150 g
# [8] = Stability of D-Trp and D-2-methyl-Trp in 1% solutions (HPLC peak area); format: physicochemical; conditions: pH 2.2 citrate buffer, dark, helium (FIG. 1), pH 5.4 acetate buffer, oxygen, constant light (FIG. 2)
# [9] = 300 μg/kg s.c., GH control 10 to 31 ng/ml depending on experiment
compound,measurement,setting,value
4-(aminomethyl)cyclohexanecarbonyl-D-Mrp-D-Trp-Phe-Lys-NH^2,GH released,[1]; [9],111.8 ± 24.6 ng/mL
"C[C@H](NC(=O)[C@@H](Cc1c[nH]c2ccccc12)NC(=O)[C@@H](N)Cc1c[nH]cn1)C(=O)N[C@@H](Cc1c[nH]c2ccccc12)C(=O)N[C@H](Cc1ccccc1)C(=O)N[C@@H](CCCCN)C(N)=O [GHRP-6, His-D-Trp-Ala-Trp-D-Phe-Lys-NH2] (H-H[dW]AW[dF]K-NH2)",GH-releasing activity,[2]; 10^-6 M,510.0 ± 12.0 ng/well
same,GH-releasing activity,[2]; 10^-7 M,526.5 ± 19.0 ng/well
same,GH-releasing activity,[2]; 10^-8 M,544.2 ± 23.9 ng/well
same,plasma GH,[3]; i.v. 150 μg/kg,30.2 ± 7.8 ng/mL
same,plasma GH,[3]; i.v. 300 μg/kg,21.9 ± 4.4 ng/mL
same,plasma GH,[3]; i.v. 600 μg/kg,21.2 ± 6.1 ng/mL
same,plasma GH,[4]; s.c. 150 μg/kg,20.0 ± 5.0 ng/mL
same,plasma GH,[4]; s.c. 300 μg/kg,20.0 ± 6.0 ng/mL
same,plasma GH,[4]; s.c. 600 μg/kg,18.0 ± 4.0 ng/mL
same,Dead rats/Total No of rats per group,[5]; 2.5 mg/kg i.v. single dose,0/6
same,Dead rats/Total No of rats per group,[5]; 5.0 mg/kg i.v. single dose,1/6
same,Dead rats/Total No of rats per group,[5]; 7.5 mg/kg i.v. single dose,2/6
same,Mean GH,[6]; main peptide effect pooled over antiserum pretreatments,131 ± 13 ng/mL
same,Peak GH,[6]; pooled over antiserum pretreatments,293 ± 41 ng/mL
same,GH AUC,"[6]; thirty minutes following injection, pooled over antiserum pretreatments",4220 ± 665 ng/ml/30 min
same,"adenylcyclase activity, increase compared with the baseline",[7],inactive
"Cc1[nH]c2ccccc2c1C[C@@H](N)C(=O)O [substituted Trp, D-2-Methyl-Tryptophan]",time stable in solution (HPLC peak area),[8],≥ 60 days
"N[C@H](Cc1c[nH]c2ccccc12)C(=O)O [unsubstituted Trp, D-Tryptophan, reference compound]",time stable in solution (HPLC peak area),[8],about 20 days
D-Ala-D-Mrp-Ala-Trp-D-Phe-Lys-NH2 [D-Ala-D-Mrp--Ala--Trp-D-Phe--Lys--NH2],GH released,"[1]; 40 μg/kg s.c., GH control 34 ± 1",200 ± 20 ng/mL
same,GH released,"[1]; 320 μg/kg s.c., GH control 34 ± 1",251 ± 32 ng/mL
same,EC50,[7],0.23 nM
same,"adenylcyclase activity, increase compared with the baseline",[7],30%
imidazolylacetyl-D-Mrp-Ala-Trp-D-Phe-Lys-NH2,GH released,[1]; [9],159 ± 27 ng/mL
